Species on record: Rattus norvegicus
Assay: Open TG-GATES - Regimen: Daily Repeat
Type: toxicity, organism-based, Sprague-Dawley
Parameters: regimen Daily Repeat, gender Male, age 6 weeks
Settings: in vivo, po, route gavage; for APTT / Bas / Eos / Fbg / Hb / Ht / Lym / MCH / MCHC / MCV / Mono / Neu / PT / Plat / RBC / Ret / WBC: tissue Blood; for KIDNEY_L / KIDNEY_R / KIDNEY_TOTAL: tissue Kidney; for LIVER: tissue Liver; for A/G / ALP / ALT / AST / BUN / CRE / Ca / Cl / DBIL / GLC / IP / K / LDH / Na / PL / RALB / TBIL / TC / TG / TP / gamma-GTP: tissue Plasma
[1] = 0 mg/kg, 72 h, dose level Control, time 3 day
[2] = 0 mg/kg, […], dose level Control, time 7 day
[3] = 0 mg/kg, […], dose level Control, time 14 day
[4] = 0 mg/kg, […], dose level Control, time 28 day
[5] = 15 mg/kg, 72 h, dose level Low, time 3 day
[6] = 15 mg/kg, […], dose level Low, time 7 day
[7] = 15 mg/kg, […], dose level Low, time 14 day
[8] = 15 mg/kg, […], dose level Low, time 28 day

CC(C)C(=O)Nc1ccc([N+](=O)[O-])c(C(F)(F)F)c1 [FLUTAMIDE]
TERMINAL_BW [1]: 224.3 g
APTT [1]: 19 s
Bas [1]: 0%
Eos [1]: 1%
Fbg [1]: 219.2 mg/dL
Hb [1]: 13.9 g/dL
Ht [1]: 41.8%
Lym [1]: 79%
MCH [1]: 21.5 pg
MCHC [1]: 33.3%
MCV [1]: 64.6 fL
Mono [1]: 3%
Neu [1]: 16%
PT [1]: 12.4 s
Plat [1]: 122.4 x10_4/uL
RBC [1]: 648 x10_4/ul
Ret [1]: 5.4%
WBC [1]: 82.7 x10_2/uL
KIDNEY_L [1]: 1 g
KIDNEY_R [1]: 1 g
KIDNEY_TOTAL [1]: 2 g
LIVER [1]: 10.4 g
A/G [1]: 1.5
ALP [1]: 1016 IU/L
ALT [1]: 41.6 IU/L
AST [1]: 72.8 IU/L
BUN [1]: 13.6 mg/dL
CRE [1]: 0.4 mg/dL
Ca [1]: 10.5 mg/dL
Cl [1]: 103.8 meq/L
DBIL [1]: 0.09 mg/dL
GLC [1]: 220.2 mg/dL
IP [1]: 7.1 mg/dL
K [1]: 4.1 meq/L
LDH [1]: 204.4 IU/L
Na [1]: 139.8 meq/L
PL [1]: 139 mg/dL
RALB [1]: 3.3 g/dL
TBIL [1]: 0.1 mg/dL
TC [1]: 76.2 mg/dL
TG [1]: 71.8 mg/dL
TP [1]: 5.5 g/dL
gamma-GTP [1]: 0.8 IU/L
TERMINAL_BW [2]: 253 g
TERMINAL_BW [3]: 303.3 g
TERMINAL_BW [4]: 371.7 g
APTT [2]: 19.5 s
Bas [2]: 0%
Eos [2]: 1%
Fbg [2]: 230.6 mg/dL
Hb [2]: 13.8 g/dL
Ht [2]: 40.6%
Lym [2]: 81.6%
MCH [2]: 21.1 pg
MCHC [2]: 33.9%
MCV [2]: 62.3 fL
Mono [2]: 2.4%
Neu [2]: 14.6%
PT [2]: 12.2 s
Plat [2]: 133.9 x10_4/uL
RBC [2]: 652.6 x10_4/ul
Ret [2]: 4.9%
WBC [2]: 141.3 x10_2/uL
APTT [3]: 20.7 s
Bas [3]: 0%
Eos [3]: 0.8%
Fbg [3]: 227 mg/dL
Hb [3]: 14.4 g/dL
Ht [3]: 42.3%
Lym [3]: 80.8%
MCH [3]: 20.8 pg
MCHC [3]: 34.1%
MCV [3]: 60.9 fL
Mono [3]: 2.4%
Neu [3]: 15.2%
PT [3]: 12.2 s
Plat [3]: 128 x10_4/uL
RBC [3]: 695 x10_4/ul
Ret [3]: 4.3%
WBC [3]: 110.8 x10_2/uL
APTT [4]: 19.6 s
Bas [4]: 0%
Eos [4]: 0.8%
Fbg [4]: 229.6 mg/dL
Hb [4]: 15.2 g/dL
Ht [4]: 43.5%
Lym [4]: 82.8%
MCH [4]: 19.9 pg
MCHC [4]: 35%
MCV [4]: 56.8 fL
Mono [4]: 2.2%
Neu [4]: 13.6%
PT [4]: 12.2 s
Plat [4]: 107.9 x10_4/uL
RBC [4]: 765.6 x10_4/ul
Ret [4]: 2.3%
WBC [4]: 122 x10_2/uL
KIDNEY_L [2]: 1.1 g
KIDNEY_R [2]: 1.1 g
KIDNEY_TOTAL [2]: 2.2 g
KIDNEY_L [3]: 1.2 g
KIDNEY_R [3]: 1.2 g
KIDNEY_TOTAL [3]: 2.5 g
KIDNEY_L [4]: 1.3 g
KIDNEY_R [4]: 1.3 g
KIDNEY_TOTAL [4]: 2.7 g
LIVER [2]: 11.7 g
LIVER [3]: 13.4 g
LIVER [4]: 15 g
A/G [2]: 1.6
ALP [2]: 743.8 IU/L
ALT [2]: 35.2 IU/L
AST [2]: 61.6 IU/L
BUN [2]: 15.6 mg/dL
CRE [2]: 0.4 mg/dL
Ca [2]: 10.7 mg/dL
Cl [2]: 103.4 meq/L
DBIL [2]: 0.09 mg/dL
GLC [2]: 214.8 mg/dL
IP [2]: 6.8 mg/dL
K [2]: 3.7 meq/L
LDH [2]: 167.2 IU/L
Na [2]: 141 meq/L
PL [2]: 140.4 mg/dL
RALB [2]: 3.6 g/dL
TBIL [2]: 0.2 mg/dL
TC [2]: 72.6 mg/dL
TG [2]: 82.6 mg/dL
TP [2]: 5.8 g/dL
gamma-GTP [2]: 1.2 IU/L
A/G [3]: 1.5
ALP [3]: 842.2 IU/L
ALT [3]: 35 IU/L
AST [3]: 61.8 IU/L
BUN [3]: 14.4 mg/dL
CRE [3]: 0.4 mg/dL
Ca [3]: 10.6 mg/dL
Cl [3]: 103.2 meq/L
DBIL [3]: 0.096 mg/dL
GLC [3]: 202.2 mg/dL
IP [3]: 6.8 mg/dL
K [3]: 3.8 meq/L
LDH [3]: 150 IU/L
Na [3]: 141.2 meq/L
PL [3]: 133.4 mg/dL
RALB [3]: 3.5 g/dL
TBIL [3]: 0.2 mg/dL
TC [3]: 67 mg/dL
TG [3]: 100.4 mg/dL
TP [3]: 5.8 g/dL
gamma-GTP [3]: 0.8 IU/L
A/G [4]: 1.4
ALP [4]: 578 IU/L
ALT [4]: 32 IU/L
AST [4]: 50 IU/L
BUN [4]: 15.8 mg/dL
CRE [4]: 0.5 mg/dL
Ca [4]: 10.3 mg/dL
Cl [4]: 104.6 meq/L
DBIL [4]: 0.072 mg/dL
GLC [4]: 226.2 mg/dL
IP [4]: 7 mg/dL
K [4]: 3.8 meq/L
LDH [4]: 121.6 IU/L
Na [4]: 140.8 meq/L
PL [4]: 130.2 mg/dL
RALB [4]: 3.5 g/dL
TBIL [4]: 0.1 mg/dL
TC [4]: 70.4 mg/dL
TG [4]: 60.8 mg/dL
TP [4]: 6 g/dL
gamma-GTP [4]: 0.8 IU/L
TERMINAL_BW [5]: 223.1 g
APTT [5]: 18.7 s
Bas [5]: 0%
Eos [5]: 1%
Fbg [5]: 224.2 mg/dL
Hb [5]: 14 g/dL
Ht [5]: 41.8%
Lym [5]: 75.2%
MCH [5]: 21.6 pg
MCHC [5]: 33.6%
MCV [5]: 64.4 fL
Mono [5]: 3.2%
Neu [5]: 19.4%
PT [5]: 12.3 s
Plat [5]: 119.4 x10_4/uL
RBC [5]: 649.4 x10_4/ul
Ret [5]: 5.7%
WBC [5]: 84.8 x10_2/uL
KIDNEY_L [5]: 1 g
KIDNEY_R [5]: 1 g
KIDNEY_TOTAL [5]: 1.9 g
LIVER [5]: 11.2 g
A/G [5]: 1.8
ALP [5]: 847 IU/L
ALT [5]: 40 IU/L
AST [5]: 66.8 IU/L
BUN [5]: 14.4 mg/dL
CRE [5]: 0.4 mg/dL
Ca [5]: 10.9 mg/dL
Cl [5]: 104.2 meq/L
DBIL [5]: 0.1 mg/dL
GLC [5]: 216.8 mg/dL
IP [5]: 7.1 mg/dL
K [5]: 3.9 meq/L
LDH [5]: 177.6 IU/L
Na [5]: 140.8 meq/L
PL [5]: 157.4 mg/dL
RALB [5]: 3.6 g/dL
TBIL [5]: 0.2 mg/dL
TC [5]: 86.6 mg/dL
TG [5]: 86.2 mg/dL
TP [5]: 5.6 g/dL
gamma-GTP [5]: 1.2 IU/L
TERMINAL_BW [6]: 248.2 g
TERMINAL_BW [7]: 294.4 g
TERMINAL_BW [8]: 340.6 g
APTT [6]: 19.1 s
Bas [6]: 0%
Eos [6]: 1%
Fbg [6]: 217.8 mg/dL
Hb [6]: 13.6 g/dL
Ht [6]: 40.3%
Lym [6]: 84.6%
MCH [6]: 20.8 pg
MCHC [6]: 33.7%
MCV [6]: 61.6 fL
Mono [6]: 2%
Neu [6]: 12.2%
PT [6]: 12.3 s
Plat [6]: 124.4 x10_4/uL
RBC [6]: 654.8 x10_4/ul
Ret [6]: 4.6%
WBC [6]: 149.8 x10_2/uL
APTT [7]: 20.6 s
Bas [7]: 0%
Eos [7]: 0.6%
Fbg [7]: 228.4 mg/dL
Hb [7]: 14.3 g/dL
Ht [7]: 41.8%
Lym [7]: 82.4%
MCH [7]: 20.9 pg
MCHC [7]: 34.2%
MCV [7]: 61.1 fL
Mono [7]: 2.4%
Neu [7]: 13.4%
PT [7]: 12.3 s
Plat [7]: 104.8 x10_4/uL
RBC [7]: 684.6 x10_4/ul
Ret [7]: 3.8%
WBC [7]: 112.5 x10_2/uL
APTT [8]: 19.6 s
Bas [8]: 0%
Eos [8]: 1.2%
Fbg [8]: 229.2 mg/dL
Hb [8]: 15.1 g/dL
Ht [8]: 42.7%
Lym [8]: 82%
MCH [8]: 20 pg
MCHC [8]: 35.4%
MCV [8]: 56.4 fL
Mono [8]: 2.2%
Neu [8]: 13.6%
PT [8]: 12.4 s
Plat [8]: 106.7 x10_4/uL
RBC [8]: 758.8 x10_4/ul
Ret [8]: 2.1%
WBC [8]: 99.2 x10_2/uL
KIDNEY_L [6]: 1.1 g
KIDNEY_R [6]: 1.1 g
KIDNEY_TOTAL [6]: 2.1 g
KIDNEY_L [7]: 1.2 g
KIDNEY_R [7]: 1.2 g
KIDNEY_TOTAL [7]: 2.3 g
KIDNEY_L [8]: 1.3 g
KIDNEY_R [8]: 1.2 g
KIDNEY_TOTAL [8]: 2.5 g
LIVER [6]: 12.1 g
LIVER [7]: 13.5 g
LIVER [8]: 13.8 g
A/G [6]: 1.5
ALP [6]: 979.6 IU/L
ALT [6]: 37.6 IU/L
AST [6]: 62.6 IU/L
BUN [6]: 15.8 mg/dL
CRE [6]: 0.5 mg/dL
Ca [6]: 10.7 mg/dL
Cl [6]: 104.2 meq/L
DBIL [6]: 0.088 mg/dL
GLC [6]: 214.2 mg/dL
IP [6]: 7.4 mg/dL
K [6]: 4.1 meq/L
LDH [6]: 195.6 IU/L
Na [6]: 140.6 meq/L
PL [6]: 145 mg/dL
RALB [6]: 3.5 g/dL
TBIL [6]: 0.1 mg/dL
TC [6]: 74.2 mg/dL
TG [6]: 83.2 mg/dL
TP [6]: 5.8 g/dL
gamma-GTP [6]: 1.2 IU/L
A/G [7]: 1.5
ALP [7]: 728 IU/L
ALT [7]: 33.4 IU/L
AST [7]: 57.2 IU/L
BUN [7]: 12.8 mg/dL
CRE [7]: 0.5 mg/dL
Ca [7]: 10.7 mg/dL
Cl [7]: 104 meq/L
DBIL [7]: 0.09 mg/dL
GLC [7]: 200.4 mg/dL
IP [7]: 6.3 mg/dL
K [7]: 3.9 meq/L
LDH [7]: 137.8 IU/L
Na [7]: 141.2 meq/L
PL [7]: 149 mg/dL
RALB [7]: 3.4 g/dL
TBIL [7]: 0.1 mg/dL
TC [7]: 77.6 mg/dL
TG [7]: 96.4 mg/dL
TP [7]: 5.7 g/dL
gamma-GTP [7]: 0.6 IU/L
A/G [8]: 1.4
ALP [8]: 460.2 IU/L
ALT [8]: 34 IU/L
AST [8]: 54.4 IU/L
BUN [8]: 16.8 mg/dL
CRE [8]: 0.5 mg/dL
Ca [8]: 10.3 mg/dL
Cl [8]: 103.6 meq/L
DBIL [8]: 0.07 mg/dL
GLC [8]: 226.2 mg/dL
IP [8]: 6.1 mg/dL
K [8]: 3.4 meq/L
LDH [8]: 126.8 IU/L
Na [8]: 141.4 meq/L
PL [8]: 147 mg/dL
RALB [8]: 3.6 g/dL
TBIL [8]: 0.1 mg/dL
TC [8]: 83.4 mg/dL
TG [8]: 51.2 mg/dL
TP [8]: 6.2 g/dL
gamma-GTP [8]: 0.4 IU/L
